In patent publication US8815852B2, “Carbamoyloxy arylalkan arylpiperazine analgesics” (SK Biopharmaceuticals Co., Ltd., priority 2007, dated 2014):
Where two headings read alike, the source gives them in different places.

Tested on: male ICR mouse
Experiment: Acetic acid-induced writhing test in mouse
Assay type: in vivo
Conditions: for inhibition in vivo at 10 mg/kg / ED50: Mus musculus; for inhibition in vivo at 10 mg/kg: 1 h, read-out: AA Writhing: Suppression ratio of Pain response; for ED50: unit not given (method doses in mg/kg), read-out: AA Writhing: ED50
Procedure: 2. Acetic Acid-Induced Writhing Test in Mouse
An acetic acid-induced writhing test is one of models for measuring an analgesic effect of drugs. A test material dissolved in a suitable vehicle was orally administered to a male ICR mouse weighing 30 to 35 g at an amount of 10 mg/kg. After 1 hour of the oral administration, […] of an aqueous 0.8% acetic acid solution was intraperitoneally injected into the male ICR mouse to induce the abdominal pain of the male ICR mouse. Right after the administration of acetic acid, the male ICR mouse was put into an empty cage, and the number of writhing behaviors of the mice was counted for 10 minutes. The term “writhing represents a reflex action in which the mouse overtly extends its abdomen by stretching its hind legs due to the abdominal pain. The analgesic effect of the test material is represented by the ‘suppression ratio of pain response’ {[(Writhing number of Vehicle-administered group−Writhing number of Test material-administered group)/(Writhing number of Vehicle-administered group)]×100%} or 50% of Effective amount (ED50 (median effective dose); an amount of test material that is required to suppress 50% of pain behaviors) of Test material. The ED50 (median effective dose) was determined by calculating the suppression ratio of pain response in at least three doses of test materials and subjecting to the linear regression.

[1] = po, at 10 po (method: 10 mg/kg oral, 1 hour before acetic acid)

SMILES: COc1ccc(N2CCN(CCC(OC(N)=O)c3cccc([N+](=O)[O-])c3)CC2)cc1 (stereo not drawn) [Example 65, Carbamic acid 3-[4-(4-methoxy-phenyl)-piperazin-1-yl]-1-(3-nitro-phenyl)-propyl ester]
- inhibition in vivo at 10 mg/kg [1]: 39%

SMILES: COc1ccc(N2CCN(CCC(OC(N)=O)c3ccc(C(F)(F)F)cc3)CC2)cc1 (stereo not drawn) [Example 66, Carbamic acid 3-[4-(4-methoxy-phenyl)-piperazin-1-yl]-1-(4-trifluoromethyl-phenyl)-propyl ester]
- inhibition in vivo at 10 mg/kg [1]: 95%

SMILES: COc1ccc(N2CCN(CCC(OC(N)=O)c3ccc4c(c3)OCO4)CC2)cc1 (stereo not drawn) [Example 67]
- inhibition in vivo at 10 mg/kg [1]: 57%

SMILES: COc1ccc(N2CCN(CCC(OC(N)=O)c3cccc(C(F)(F)F)c3)CC2)cc1 (stereo not drawn) [Example 68, Carbamic acid 3-[4-(4-methoxy-phenyl)-piperazin-1-yl]-1-(3-trifluoromethyl-phenyl)-propyl ester]
- inhibition in vivo at 10 mg/kg [1]: 48%

SMILES: COc1ccc(N2CCN(CCC(OC(N)=O)c3ccccc3F)CC2)cc1 (stereo not drawn) [Example 69, Carbamic acid 1-(2-fluoro-phenyl)-3-[4-(4-methoxy-phenyl)-piperazin-1-yl]-propyl ester]
- AA Writhing: Suppression ratio of Pain response (at 10 po (method: 10 mg/kg oral, 1 hour before acetic acid)): 57%

SMILES: COc1ccc(N2CCN(CCC(OC(N)=O)c3ccc(Cl)c(Cl)c3)CC2)cc1 (stereo not drawn) [Example 70, Carbamic acid 1-(3,4-dichloro-phenyl)-3-[4-(4-methoxy-phenyl)-piperazin-1-yl]-propyl ester]
- inhibition in vivo at 10 mg/kg [1]: 51%

SMILES: COc1ccc(N2CCN(CCC(OC(N)=O)c3ccc(Cl)cc3)CC2)cc1 (stereo not drawn) [Example 71, Carbamic acid 1-(4-chloro-phenyl)-3-[4-(4-methoxy-phenyl)-piperazin-1-yl]-propyl ester]
- inhibition in vivo at 10 mg/kg [1]: 61%

SMILES: NC(=O)OC(CCN1CCN(c2ccc(O)cc2)CC1)c1ccc(Cl)c(C(F)(F)F)c1 (stereo not drawn) [Example 72, Carbamic acid 1-(4-chloro-3-trifluoromethyl-phenyl)-3-[4-(4-hydroxy-phenyl)-piperazin-1-yl]-propyl ester]
- inhibition in vivo at 10 mg/kg [1]: 53%

SMILES: NC(=O)OC(CCN1CCN(c2ccc(O)cc2)CC1)c1ccc(Cl)c(Cl)c1 (stereo not drawn) [Example 73, Carbamic acid 1-(3,4-dichloro-phenyl)-3-[4-(4-hydroxy-phenyl)-piperazin-1-yl]-propyl ester]
- inhibition in vivo at 10 mg/kg [1]: 55%

SMILES: CCOc1ccccc1N1CCN(CCC(OC(N)=O)c2ccc(F)cc2)CC1 (stereo not drawn) [Example 74, Carbamic acid 3-[4-(2-ethoxy-phenyl)-piperazin-1-yl]-1-(4-fluoro-phenyl)-propyl ester]
- inhibition in vivo at 10 mg/kg [1]: 44%

SMILES: COc1ccc(Cl)cc1N1CCN(CCC(OC(N)=O)c2ccc(F)cc2)CC1 (stereo not drawn) [Example 75, Carbamic acid 3-[4-(5-chloro-2-methoxy-phenyl)-piperazin-1-yl]-1-(4-fluoro-phenyl)-propyl ester]
- inhibition in vivo at 10 mg/kg [1]: 14%

SMILES: NC(=O)OC(CCN1CCN(c2ccc(Cl)c(Cl)c2)CC1)c1ccc(F)cc1 (stereo not drawn) [Example 76, Carbamic acid 3-[4-(3,4-dichloro-phenyl)-piperazin-1-yl]-1-(4-fluoro-phenyl)-propyl ester]
- inhibition in vivo at 10 mg/kg [1]: 50%

SMILES: COc1ccc(N2CCN(CCC(OC(N)=O)c3ccc(F)cc3)CC2)cc1 (stereo not drawn) [Example 77, Carbamic acid 1-(4-fluoro-phenyl)-3-[4-(4-methoxy-phenyl)-piperazin-1-yl]-propyl ester]
- ED50 (po): 12.4 mg/kg

SMILES: COc1ccc(N2CCN(CC3CCc4ccccc4C3OC(N)=O)CC2)cc1 (stereo not drawn) [Example 82, Carbamic acid 2-[4-(4-methoxy-phenyl)-piperazin-1-ylmethyl]-1,2,3,4-tetrahydro-naphthalen-1-yl ester]
- inhibition in vivo at 10 mg/kg [1]: 55%

SMILES: NC(=O)OC(CCN1CCN(c2ccc(OCc3ccccc3)cc2)CC1)c1ccccc1 (stereo not drawn) [Example 85, Carbamic acid 3-[4-(4-benzyloxyphenyl)-piperazin-1-yl]-1-phenyl-propyl ester]
- inhibition in vivo at 10 mg/kg [1]: 58%

SMILES: CC(=O)Oc1ccc(N2CCN(CCC(OC(N)=O)c3ccccc3)CC2)cc1 (stereo not drawn) [Example 86, Acetic acid 4-[4-(3-carbamoyloxy-3-phenyl-propyl)-piperazin-1-yl]-phenyl ester]
- ED50 (po): 7.52 mg/kg

SMILES: NC(=O)OC(CCN1CCN(c2ccc(OC3CCCC3)cc2)CC1)c1ccccc1 (stereo not drawn) [Example 87, Carbamic acid 3-[4-(4-cyclopentyloxy-phenyl)-piperazin-1-yl]-1-phenyl-propyl ester]
- inhibition in vivo at 10 mg/kg [1]: 58%

SMILES: NC(=O)OC(CCN1CCN(c2ccc(O)cc2)CC1)c1ccc(F)cc1 (stereo not drawn) [Example 88, Carbamic acid 1-(4-fluoro-phenyl)-3-[4-(4-hydroxy-phenyl)-piperazin-1-yl]-propyl ester]
- ED50 (po): 7.24 mg/kg

SMILES: CC(C)(C)C(=O)Oc1ccc(N2CCN(CCC(OC(N)=O)c3ccc(F)cc3)CC2)cc1 (stereo not drawn) [Example 89, 1-(4-fluorophenyl)-3-(4-(4-(pivaloyloxy)phenyl)piperazin-1-yl)propyl carbamate]
- inhibition in vivo at 10 mg/kg [1]: 63%

SMILES: CCOC(=O)Oc1ccc(N2CCN(CCC(OC(N)=O)c3ccc(F)cc3)CC2)cc1 (stereo not drawn) [Example 90, Carbonic acid 4-{4-[3-carbamoyloxy-3-(4-fluoro-phenyl)-propyl]-piperazin-1-yl}-phenyl ethyl ester]
- ED50 (po): 23.4 mg/kg

SMILES: NC(=O)OC(CCN1CCN(c2ccc(OC(=O)OCc3ccccc3)cc2)CC1)c1ccc(F)cc1 (stereo not drawn) [Example 91, Carbonic acid benzyl ester 4-{4-[3-carbamoyloxy-3-(4-fluoro-phenyl)-propyl]-piperazin-1-yl}-phenyl ester]
- inhibition in vivo at 10 mg/kg [1]: 45%

SMILES: CC(=O)Oc1ccc(N2CCN(CCC(OC(N)=O)c3ccc(F)cc3)CC2)cc1 (stereo not drawn) [Example 92, Acetic acid 4-{4-[3-carbamoyloxy-3-(4-fluoro-phenyl)-propyl]-piperazin-1-yl}-phenyl ester]
- ED50 (ip): 0.22 mg/kg
- ED50 (po): 5.66 mg/kg

SMILES: COc1ccc(N2CC(C)N(CC[C@@H](OC(N)=O)c3ccccc3)C(C)C2)cc1 (stereo partly drawn) [Example 101, Carbamic acid (R)-3-[4-(4-methoxy-phenyl)-2,6-dimethyl-piperazin-1-yl]-1-phenyl-propyl ester]
- inhibition in vivo at 10 mg/kg [1]: 48%

SMILES: NC(=O)O[C@H](CCN1CCN(c2ccc(O)cc2)CC1)c1ccccc1 [Example 105, (R)-carbamic acid 3-[4-(4-hydroxy-phenyl)-piperazin-1-yl]-1-phenyl-propyl ester]
- ED50 (po): 6.49 mg/kg

SMILES: COc1ccc(N2CCN(CCC3OC(=O)Nc4ccccc43)CC2)cc1 (stereo not drawn) [Example 107, 4-{2-[4-(4-methoxy-phenyl)-piperazin-1-yl]-ethyl}-1,4-dihydro-benzo[d][1,3]oxazin-2-one]
- inhibition in vivo at 10 mg/kg [1]: 35%

SMILES: COc1ccc(N2CCN(C(C)CC(OC(N)=O)c3ccccc3)CC2)cc1 (stereo not drawn) [Example 108, Carbamic acid 3-[4-(4-methoxy-phenyl)-piperazin-1-yl]-1-phenyl-butyl ester]
- inhibition in vivo at 10 mg/kg [1]: 83.5%

SMILES: CC(CC(OC(N)=O)c1ccccc1)N1CCN(c2ccc(Cl)cc2)CC1 (stereo not drawn) [Example 109, Carbamic acid 3-[4-(4-chloro-phenyl)-piperazin-1-yl]-1-phenyl-butyl ester]
- inhibition in vivo at 10 mg/kg [1]: 84%

SMILES: CC(CC(OC(N)=O)c1ccccc1)N1CCN(c2ccc([N+](=O)[O-])cc2)CC1 (stereo not drawn) [Example 110, Carbamic acid 3-[4-(4-nitro-phenyl)-piperazin-1-yl]-1-phenyl-butyl ester]
- inhibition in vivo at 10 mg/kg [1]: 17%

SMILES: Cc1ccc(N2CCN(C(C)CC(OC(N)=O)c3ccccc3)CC2)cc1C (stereo not drawn) [Example 111, Carbamic acid 3-[4-(3,4-dimethyl-phenyl)-piperazin-1-yl]-1-phenyl-butyl ester]
- inhibition in vivo at 10 mg/kg [1]: 95%

SMILES: CC(CC(OC(N)=O)c1ccccc1)N1CCN(c2cnc3ccccc3n2)CC1 (stereo not drawn) [Example 112]
- inhibition in vivo at 10 mg/kg [1]: 72%

SMILES: COc1ccc(N2CCN(C(C)CC(OC(N)=O)c3ccccc3)CC2)cc1OC (stereo not drawn) [Example 113, Carbamic acid 3-[4-(3,4-dimethoxy-phenyl)-piperazin-1-yl]-1-phenyl-butyl ester]
- inhibition in vivo at 10 mg/kg [1]: 57%

SMILES: CC(CC(OC(N)=O)c1ccccc1)N1CCN(c2ncc(Cl)cc2Cl)CC1 (stereo not drawn) [Example 114]
- inhibition in vivo at 10 mg/kg [1]: 39%

SMILES: CC(CC(OC(N)=O)c1ccccc1)N1CCN(c2ccc(Cl)c(Cl)c2)CC1 (stereo not drawn) [Example 115, Carbamic acid 3-[4-(3,4-dichloro-phenyl)-piperazin-1-yl]-1-phenyl-butyl ester]
- inhibition in vivo at 10 mg/kg [1]: 68%

SMILES: CC(CC(OC(N)=O)c1ccccc1)N1CCN(c2ccc(F)cc2F)CC1 (stereo not drawn) [Example 116, Carbamic acid 3-[4-(2,4-difluoro-phenyl)-piperazin-1-yl]-1-phenyl-butyl ester]
- inhibition in vivo at 10 mg/kg [1]: 87%

SMILES: NC(=O)OC(c1ccccc1)C(F)CN1CCN(c2ccccc2)CC1 (stereo not drawn) [Example 117, Carbamic acid 2-fluoro-1-phenyl-3-(4-phenyl-piperazin-1-yl)-propyl ester]
- ED50 (po): 32.2 mg/kg
